No end group written: not given here.
What was measured:
Test in all cases: biochemical
Format in all cases: binding
HLA-DR DRB1*0901 (DR9) = HLA-DR DRB1*0901 (DR9) (Homo sapiens, UniProt P01903+P01911, A100R/A103E/D57H/D86V/F55Y/F60I/F76Y/I96F/K127E/L162R/M171V/P40D/Q125H/Q99R/R33Q/R42F/S133A/S66N/T210M/V115G/W38K/Y107V/Y59G/Y89S); conditions: DRB1 *0901
HLA-DR DRB3*0101 (DR52) = HLA-DR DRB3*0101 (DR52) (Homo sapiens, UniProt P01903+P79483)
HLA-DR DRB4*0101 (DR53) = HLA-DR DRB4*0101 (DR53) (Homo sapiens, UniProt P01903+P13762, G164S); conditions: DRB4 *0101
HLA-DR DRB1*0802 (DR8) = HLA-DR DRB1*0802 (DR8) (Homo sapiens, UniProt P01903+P01911, A100R/A103L/A169T/F76Y/H45Y/I96F/K41T/L162R/M171V/P40S/Q125H/Q178H/Q39Y/Q99D/R218S/R42G/S66Y/V115G/W38E)
HLA-DR DRB1*0101 (DR1) = HLA-DR DRB1*0101 (DR1) (Homo sapiens, UniProt P01903+P01911, A100R/D57E/F55L/F60I/F76Y/I96L/L162R/M171V/P40L/Q125E/R42F/V115G/Y59C); conditions: DRB1 *0101
HLA-DR DRB1*1302 (DR13) = HLA-DR DRB1*1302 (DR13) (Homo sapiens, UniProt P01903+P01911, A100E/A169T/K41T/L162R/M171V/P40S/Q125H/Q178H/Q39Y/Q99D/R42S/S66N/T262R/V115G/W38E/Y61H); conditions: DRBI *1302
HLA-DR DRB1*1302 (DR13), sequence (P01903 26-254 limits assumed, other chains not shown): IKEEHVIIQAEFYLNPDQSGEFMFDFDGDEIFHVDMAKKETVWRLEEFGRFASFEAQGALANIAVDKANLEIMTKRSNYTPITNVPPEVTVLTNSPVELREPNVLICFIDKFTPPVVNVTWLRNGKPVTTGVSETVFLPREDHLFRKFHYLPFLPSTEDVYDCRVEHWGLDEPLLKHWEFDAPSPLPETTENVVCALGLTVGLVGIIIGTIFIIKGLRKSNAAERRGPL

HLA-DR DRB1*0301 (DR3) = HLA-DR DRB1*0301 (DR3) (Homo sapiens, UniProt P01903+P01911, A100K/A102G/A103R/A169T/F55Y/I96L/K41T/L162R/M171V/P40S/Q125H/Q178H/Q39Y/R42S/S66N/T106N/T262R/W38E/Y61H)
HLA-DR DRB1*0301 (DR3), sequence (P01903 26-254 limits assumed, other chains not shown): as above

HLA-DR DRB1*0401 (DR4) = HLA-DR DRB1*0401 (DR4) (Homo sapiens, UniProt P01903+P01911, A100K/A169T/F76Y/I96L/K127E/L162R/M171V/N62H/P40V/Q125Y/R42H/S133A/S149N/S66Y/V115G/V209L/W38E); conditions: DRB1 *0401
HLA-DR DRB1*1101 (DR11) = HLA-DR DRB1*1101 (DR11) (Homo sapiens, UniProt P01903+P01911, A100R/A169T/A87E/I96F/K41T/L162R/M171V/P40S/Q125H/Q178H/Q39Y/Q99D/R42S/S66Y/T262R/V115G/W38E); conditions: DRB1 *1101
HLA-DR DRB1*1101 (DR11), sequence (P01903 26-254 limits assumed, other chains not shown): as above

HLA-DR DRB1*0701 (DR7) = HLA-DR DRB1*0701 (DR7) (Homo sapiens, UniProt P01903+P01911, A100R/A102G/A103Q/D57E/D86V/E43K/F76Y/K127E/L162R/M171V/P40G/Q125H/Q99D/R33Q/R42Y/R54Q/S133A/S66F/T210M/V115G/Y107V/Y59L/Y89S); conditions: DRB1 *0701
HLA-DR DRB5*0101 (DR51) = HLA-DR DRB5*0101 (DR51) (Homo sapiens, UniProt P01903+Q30154); conditions: DRB5 *0101
HLA-DR DRB1*1501 (DR15) = HLA-DR DRB1*1501 (DR15) (Homo sapiens, UniProt P01903+P01911); conditions: DRBI *1501

| Compound | IC50 (HLA-DR DRB1*0901 (DR9)) | IC50 (HLA-DR DRB3*0101 (DR52)) | IC50 (HLA-DR DRB4*0101 (DR53)) | IC50 (HLA-DR DRB1*0802 (DR8)) | IC50 (HLA-DR DRB1*0101 (DR1)) | IC50 (HLA-DR DRB1*1302 (DR13)) | IC50 (HLA-DR DRB1*0301 (DR3)) | IC50 (HLA-DR DRB1*0401 (DR4)) | IC50 (HLA-DR DRB1*1101 (DR11)) | IC50 (HLA-DR DRB1*0701 (DR7)) | IC50 (HLA-DR DRB5*0101 (DR51)) | IC50 (HLA-DR DRB1*1501 (DR15)) |
| --- | --- | --- | --- | --- | --- | --- | --- | --- | --- | --- | --- | --- |
| CC[C@H](C)[C@H](NC(=O)[C@H](CCC(N)=O)NC(=O)[C@@H](N)CCCNC(=N)N)C(=O)N[C@@H](Cc1ccc(O)cc1)C(=O)N[C@H](C(=O)N[C@@H](C)C(=O)N[C@@H](C)C(=O)N[C@@H](Cc1ccccc1)C(=O)N[C@H](C(=O)N[C@H](C(=O)N[C@@H](CCC(N)=O)C(=O)N[C@@H](C)C(=O)N[C@@H](C)C(=O)N[C@@H](C)C(=O)N[C@@H](CCC(=O)O)C(=O)O)C(C)C)[C@@H](C)O)C(C)C | 91 nM | 6810 nM | 47 nM | 36 nM | 3.7 nM | 524 nM | 28300 nM | 1.2 nM | 35 nM | – | – | – |
| CC(C)C[C@H](NC(=O)[C@@H](NC(=O)[C@H](CCC(=O)O)NC(=O)[C@H](C)NC(=O)[C@H](C)NC(=O)[C@H](C)NC(=O)[C@H](CCC(N)=O)NC(=O)[C@@H](NC(=O)[C@@H](NC(=O)[C@H](Cc1ccccc1)NC(=O)[C@H](C)NC(=O)[C@H](C)NC(=O)[C@@H](N)C(C)C)[C@@H](C)O)C(C)C)[C@@H](C)O)C(=O)N[C@@H](CO)C(=O)N[C@@H](CCC(=O)O)C(=O)O | 127 nM | 2120 nM | 464 nM | 1420 nM | 14 nM | – | > 75000 nM | 58 nM | – | 793 nM | 378 nM | 18200 nM |
| CC[C@H](C)[C@H](NC(=O)[C@@H](NC(=O)[C@@H](N)CO)C(C)C)C(=O)N[C@@H](CC(C)C)C(=O)N[C@@H](CC(C)C)C(=O)NCC(=O)N[C@@H](CCCNC(=N)N)C(=O)N[C@@H](Cc1c[nH]cn1)C(=O)N[C@@H](CO)C(=O)N[C@@H](CC(C)C)C(=O)N[C@@H](Cc1ccccc1)C(=O)N[C@@H](Cc1c[nH]cn1)C(=O)N1CCC[C@H]1C(=O)N[C@@H](CCC(=O)O)C(=O)N[C@@H](CC(=O)O)C(=O)O [SVILLGRHSLFHPED] | 5220 nM | 13000 nM | 4410 nM | 500 nM | 717 nM | 96 nM | 1400 nM | 12600 nM | 96 nM | – | 16100 nM | – |
| EDFFKLERDMKINCS | > 52300 nM | 4040 nM | 7890 nM | 1440 nM | 2710 nM | 3190 nM | 468 nM | 226 nM | – | 8550 nM | 3490 nM | > 3490 nM |
| HPLYNMSLLKHQSLR | 199 nM | > 14900 nM | 8.4 nM | 382 nM | 232 nM | 546 nM | 13000 nM | 499 nM | – | 1280 nM | 219 nM | 472 nM |
| KLKLYTGEATRTGDR | > 78900 nM | 5300 nM | 14800 nM | 2010 nM | 178 nM | 841 nM | 118000 nM | 15 nM | – | 8230 nM | – | 18 nM |
| TSITSLYQLENYTG | 46300 nM | 92300 nM | 1660 nM | 14600 nM | – | > 17100 nM | 96700 nM | 1630 nM | 1010 nM | 8370 nM | 16100 nM | – |
